# Assay results reported in ChEMBL document CHEMBL1743341, “Cytochrome p450 enzymes mechanism based inhibitors: common sub-structures and reactivity” (Curr Drug Metab, 2005).
# Legend:
# Format in all cases: ADME
# [1] = molecular target: T1, CYP2A6 (Homo sapiens, UniProt P11509); assay: (§1) Mechanism based inhibition of human cytochrome P450 2A6 measured by coumarin 7-hydroxylation; conditions: human, probe coumarin (7-hydroxylation)
# T1 sequence (P11509 whole entry): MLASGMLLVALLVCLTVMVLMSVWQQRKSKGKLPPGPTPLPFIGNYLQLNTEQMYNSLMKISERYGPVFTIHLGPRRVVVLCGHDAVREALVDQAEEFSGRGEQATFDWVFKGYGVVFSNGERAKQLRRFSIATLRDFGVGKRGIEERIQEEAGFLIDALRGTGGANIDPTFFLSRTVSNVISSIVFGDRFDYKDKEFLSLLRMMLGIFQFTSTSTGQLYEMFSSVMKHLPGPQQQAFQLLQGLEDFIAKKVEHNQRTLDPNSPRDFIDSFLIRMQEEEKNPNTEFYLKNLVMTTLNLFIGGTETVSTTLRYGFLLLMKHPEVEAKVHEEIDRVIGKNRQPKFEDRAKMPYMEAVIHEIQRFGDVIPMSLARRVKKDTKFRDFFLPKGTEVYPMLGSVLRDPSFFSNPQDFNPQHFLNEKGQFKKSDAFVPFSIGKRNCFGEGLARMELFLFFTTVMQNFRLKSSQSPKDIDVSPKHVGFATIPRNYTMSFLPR
# [2] = molecular target: T2, Cytochrome P450 2A6 (Homo sapiens, UniProt P11509); assay: as §1
# T2 sequence (P11509 whole entry): T1 sequence (P11509 whole entry)
# [3] = molecular target: T3, CYP3A4 (Homo sapiens, UniProt P08684); assay: (§2) Mechanism based inhibition of human cytochrome P450 3A4 measured by testosterone 6-beta hydroxylation; conditions: human, probe testosterone (6-beta hydroxylation)
# T3 sequence (P08684 whole entry): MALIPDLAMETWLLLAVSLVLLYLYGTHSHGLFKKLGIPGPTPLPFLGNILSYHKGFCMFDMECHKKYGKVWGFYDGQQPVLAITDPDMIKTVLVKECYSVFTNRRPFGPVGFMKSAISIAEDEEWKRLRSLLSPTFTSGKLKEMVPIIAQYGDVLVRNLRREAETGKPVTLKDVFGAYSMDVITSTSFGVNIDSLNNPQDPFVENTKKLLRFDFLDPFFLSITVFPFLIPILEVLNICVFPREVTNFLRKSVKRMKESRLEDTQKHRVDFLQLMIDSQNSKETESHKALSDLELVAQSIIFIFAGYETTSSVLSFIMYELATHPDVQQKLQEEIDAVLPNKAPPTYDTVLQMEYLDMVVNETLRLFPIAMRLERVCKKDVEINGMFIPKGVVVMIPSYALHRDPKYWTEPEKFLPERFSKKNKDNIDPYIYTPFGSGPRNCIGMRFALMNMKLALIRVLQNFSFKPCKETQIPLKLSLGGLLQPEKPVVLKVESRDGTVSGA
# [4] = molecular target: T4, Cytochrome P450 3A4 (Homo sapiens, UniProt P08684); assay: as §2
# T4 sequence (P08684 whole entry): as above
# [5] = molecular target: T5, Cytochrome P450 1A1 (Homo sapiens, UniProt P04798); assay: Mechanism based inhibition of human cytochrome P450 1A1 measured by 7-ethoxyresorufin O-deethylation (EROD)
# T5 sequence (P04798 whole entry): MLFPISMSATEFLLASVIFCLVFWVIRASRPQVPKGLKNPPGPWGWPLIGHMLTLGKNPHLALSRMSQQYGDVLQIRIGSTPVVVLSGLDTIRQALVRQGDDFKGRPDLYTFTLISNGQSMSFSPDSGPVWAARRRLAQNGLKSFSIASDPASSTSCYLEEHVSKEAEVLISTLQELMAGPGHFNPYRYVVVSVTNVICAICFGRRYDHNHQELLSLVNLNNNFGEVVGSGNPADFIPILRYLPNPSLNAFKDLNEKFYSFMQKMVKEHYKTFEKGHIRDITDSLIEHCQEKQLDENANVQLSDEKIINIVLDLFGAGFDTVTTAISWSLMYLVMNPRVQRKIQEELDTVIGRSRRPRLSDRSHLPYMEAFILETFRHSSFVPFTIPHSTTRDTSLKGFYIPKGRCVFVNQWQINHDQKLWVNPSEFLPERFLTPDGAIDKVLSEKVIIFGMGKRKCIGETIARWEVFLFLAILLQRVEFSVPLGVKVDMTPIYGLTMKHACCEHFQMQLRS
# [6] = molecular target: T6, Cytochrome P450 1A2 (Homo sapiens, UniProt P05177); assay: Mechanism based inhibition of human cytochrome P450 1A2 measured by 7-ethoxyresorufin O-deethylation (EROD)
# T6 sequence (P05177 whole entry): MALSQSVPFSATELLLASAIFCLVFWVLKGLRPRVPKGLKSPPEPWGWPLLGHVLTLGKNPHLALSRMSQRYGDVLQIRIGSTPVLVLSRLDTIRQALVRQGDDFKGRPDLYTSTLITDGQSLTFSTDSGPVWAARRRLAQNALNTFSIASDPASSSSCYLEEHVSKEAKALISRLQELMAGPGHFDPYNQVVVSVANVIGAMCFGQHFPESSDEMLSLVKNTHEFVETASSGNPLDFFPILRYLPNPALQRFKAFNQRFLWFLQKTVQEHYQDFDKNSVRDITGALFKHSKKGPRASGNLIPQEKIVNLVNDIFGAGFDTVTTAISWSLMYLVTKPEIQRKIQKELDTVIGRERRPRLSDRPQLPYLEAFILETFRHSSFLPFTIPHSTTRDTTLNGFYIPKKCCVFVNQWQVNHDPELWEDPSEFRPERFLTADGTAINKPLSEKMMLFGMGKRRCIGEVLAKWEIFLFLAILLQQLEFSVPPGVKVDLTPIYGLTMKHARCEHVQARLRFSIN
# [7] = molecular target: T7, CYP1A1 (Rattus norvegicus, UniProt P00185); assay: (§3) Mechanism based inhibition of rat cytochrome P450 CYP1A1 measured by 7-ethoxyresorufin O-deethylation (EROD); conditions: rat, probe 7-ethoxyresorufin (O-deethylation, EROD)
# T7 sequence (P00185 whole entry): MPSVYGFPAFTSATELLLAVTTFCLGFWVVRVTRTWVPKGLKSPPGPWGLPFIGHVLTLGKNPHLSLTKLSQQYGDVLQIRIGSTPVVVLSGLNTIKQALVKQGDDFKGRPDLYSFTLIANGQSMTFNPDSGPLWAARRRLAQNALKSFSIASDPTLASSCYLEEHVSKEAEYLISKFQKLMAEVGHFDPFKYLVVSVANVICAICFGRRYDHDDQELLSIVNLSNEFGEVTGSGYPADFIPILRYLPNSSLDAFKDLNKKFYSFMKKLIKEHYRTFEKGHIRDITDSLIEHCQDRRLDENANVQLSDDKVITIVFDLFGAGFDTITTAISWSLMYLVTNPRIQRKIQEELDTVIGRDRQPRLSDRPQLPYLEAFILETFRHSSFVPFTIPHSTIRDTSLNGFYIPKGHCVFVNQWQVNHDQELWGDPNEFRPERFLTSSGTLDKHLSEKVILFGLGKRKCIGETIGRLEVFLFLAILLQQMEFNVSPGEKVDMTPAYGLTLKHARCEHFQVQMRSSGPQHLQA
# [8] = molecular target: T8, Cytochrome P450 1A1 (Rattus norvegicus, UniProt P00185); assay: as §3
# T8 sequence (P00185 whole entry): T7 sequence (P00185 whole entry)
# [9] = molecular target: T9, CYP1A2 (Rattus norvegicus, UniProt P04799); assay: (§4) Mechanism based inhibition of rat cytochrome P450 CYP1A2 measured by 7-methoxyresorufin O-demethylation (MROD); conditions: rat, probe 7-methoxyresorufin (O-demethylation, MROD)
# T9 sequence (P04799 whole entry): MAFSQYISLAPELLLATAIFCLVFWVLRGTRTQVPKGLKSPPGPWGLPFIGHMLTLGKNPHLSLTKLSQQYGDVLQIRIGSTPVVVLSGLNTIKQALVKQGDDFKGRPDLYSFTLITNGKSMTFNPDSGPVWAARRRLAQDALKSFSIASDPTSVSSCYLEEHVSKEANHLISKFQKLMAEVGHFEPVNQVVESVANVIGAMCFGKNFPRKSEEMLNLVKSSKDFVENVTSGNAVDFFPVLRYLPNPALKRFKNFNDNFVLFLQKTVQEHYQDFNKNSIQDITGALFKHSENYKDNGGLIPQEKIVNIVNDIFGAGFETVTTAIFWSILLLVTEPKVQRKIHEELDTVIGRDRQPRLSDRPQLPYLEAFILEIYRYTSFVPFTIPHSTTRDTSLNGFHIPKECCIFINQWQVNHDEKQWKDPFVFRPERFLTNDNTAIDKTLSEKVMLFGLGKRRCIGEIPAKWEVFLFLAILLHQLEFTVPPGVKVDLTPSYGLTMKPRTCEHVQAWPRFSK
# [10] = molecular target: T10, Cytochrome P450 1A2 (Rattus norvegicus, UniProt P04799); assay: as §4
# T10 sequence (P04799 whole entry): T9 sequence (P04799 whole entry)
# [11] = molecular target: Cytochrome P450 2E1 (Rattus norvegicus, UniProt P05182); assay: Mechanism based inhibition of rat cytochrome P450 CYP2E1
# Sequence of Cytochrome P450 2E1 (P05182 whole entry): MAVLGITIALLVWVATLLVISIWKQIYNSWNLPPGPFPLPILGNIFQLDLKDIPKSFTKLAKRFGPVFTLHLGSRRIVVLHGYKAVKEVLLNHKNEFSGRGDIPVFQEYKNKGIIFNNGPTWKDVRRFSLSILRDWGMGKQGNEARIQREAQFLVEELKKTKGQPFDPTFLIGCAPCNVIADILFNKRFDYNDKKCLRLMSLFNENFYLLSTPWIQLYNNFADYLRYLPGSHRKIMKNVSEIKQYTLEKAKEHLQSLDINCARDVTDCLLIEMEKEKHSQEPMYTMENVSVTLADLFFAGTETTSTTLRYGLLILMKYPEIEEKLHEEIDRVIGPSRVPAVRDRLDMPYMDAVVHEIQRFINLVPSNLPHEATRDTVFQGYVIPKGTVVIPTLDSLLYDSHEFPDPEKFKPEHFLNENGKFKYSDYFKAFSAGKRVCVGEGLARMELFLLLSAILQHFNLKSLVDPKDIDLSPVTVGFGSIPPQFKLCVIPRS
# [12] = molecular target: T3, CYP3A4; assay: (§5) Mechanism based inhibition of human cytochrome P450 3A4 measured by (14C)formaldehyde production from (N-methyl-14C)-erythromycin; conditions: human, probe (N-methyl-14C)-erythromycin
# [13] = molecular target: T4, Cytochrome P450 3A4; assay: as §5
compound,measurement,setting,value
COc1c2c(cc3ccc(=O)oc13)CCO2,kinact,[1],0.00233 s⁻¹
same,Ki,[2],27 µM
CNCCCC(C#N)(c1ccc(OC)c(OC)c1)C(C)C (stereo unspecified),kinact,[3],0.00117 s⁻¹
same,Ki,[4],7.93 µM
Cc1cc(C)c(SCC[n+]2noc([O-])c2C)c(C)c1,mechanism based inhibition,[4],Cytochrome P450 mechanistic inhibitor: PMID 9107543
same,mechanism based inhibition,[5],Cytochrome P450 mechanistic inhibitor: PMID 9107543
same,mechanism based inhibition,[6],Cytochrome P450 mechanistic inhibitor: PMID 9107543
CC(C)CN(C[C@@H](O)[C@H](Cc1ccccc1)NC(=O)[C@@H](NC(=O)CNCc1cccc(F)c1)C(C)(C)C)S(=O)(=O)c1cccc(N)c1,kinact,[3],0.00367 s⁻¹
same,Ki,[4],0.24 µM
C#Cc1ccc(NC(C)=O)cc1,kinact,[7],0.0015 s⁻¹
same,Ki,[8],8600 nM
CC#CCCCc1ccccc1,kinact,[7],0.00833 s⁻¹
same,Ki,[8],540 nM
CC#Cc1ccc2ccccc2c1,mechanism based inhibition,[8]; rat,Cytochrome P450 mechanistic inhibitor: PMID 9074808
C#Cc1ccc2c(ccc3ccccc32)c1,kinact,[7],0.0133 s⁻¹
same,Ki,[8],250 nM
C#Cc1ccc2ccc3ccccc3c2c1,kinact,[7],0.00167 s⁻¹
same,Ki,[8],90 nM
C#Cc1ccc2ccc3cccc4ccc1c2c34,kinact,[7],0.00117 s⁻¹
same,Ki,[8],20 nM
C#Cc1cc2cccc3ccc4cccc1c4c32,kinact,[7],0.00117 s⁻¹
same,Ki,[8],10 nM
same,kinact,[9],0.005 s⁻¹
same,Ki,[10],1200 nM
C/C=C\Cl.Cl/C=C\Cl,mechanism based inhibition,[11],Cytochrome P450 mechanistic inhibitor: PMID 9851676
CCC[C@@H](NC(=O)N1C(=O)C(CC)(CC)[C@@H]1Oc1ccc(C(=O)N2CCN(C)CC2)cc1)c1ccc2c(c1)OCO2,mechanism based inhibition,[4],Cytochrome P450 mechanistic inhibitor
CC#Cc1ccc2ccc3cccc4ccc1c2c34,kinact,[7],0.000333 s⁻¹
same,Ki,[8],300 nM
same,kinact,[9],0.001 s⁻¹
same,Ki,[10],4 nM
C#Cc1ccc(-c2ccccc2)cc1,kinact,[7],0.001 s⁻¹
same,Ki,[8],270 nM
same,kinact,[9],0.00167 s⁻¹
same,Ki,[10],870 nM
COc1cc(C[C@@H](CO)[C@H](CO)Cc2ccc3c(c2)OCO3)cc(OC)c1OC,kinact,[12],0.00517 s⁻¹
same,Ki,[13],54 nM
